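Exposure lasted 48 hours, with cells grown in 96-well plates and compounds tested at five concentrations. GI50 = concentration required for 50% inhibition of growth. The concentration for full growth arrest is given as TGI.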
Tests used:
Assay in all cases: DTP human tumour cell line panel, 48 h
BT-549 breast = test system: BT-549 breast
EKVX NSCLC = test system: EKVX NSCLC
HOP-92 NSCLC = test system: HOP-92 NSCLC
HS 578T breast = test system: HS 578T breast
K-562 leukemia = test system: K-562 leukemia
MDA-MB-231 breast = test system: MDA-MB-231 breast
MDA-N = test system: MDA-N
MOLT-4 leukemia = test system: MOLT-4 leukemia
NCI-H460 lung = test system: NCI-H460 lung
NCI/ADR-RES ovarian = test system: NCI/ADR-RES ovarian
RPMI-8226 leukemia = test system: RPMI-8226 leukemia
RXF 393 renal = test system: RXF 393 renal
SK-MEL-5 melanoma = test system: SK-MEL-5 melanoma
SNB-75 CNS = test system: SNB-75 CNS
UACC-257 melanoma = test system: UACC-257 melanoma
UACC-62 melanoma = test system: UACC-62 melanoma
UO-31 renal = test system: UO-31 renal
786-0 renal = test system: 786-0 renal
A549 NSCLC = test system: A549 NSCLC
CAKI-1 renal = test system: CAKI-1 renal
CCRF-CEM leukemia = test system: CCRF-CEM leukemia
COLO 205 colon = test system: COLO 205 colon
DU-145 prostate = test system: DU-145 prostate
HCC-2998 colon = test system: HCC-2998 colon
HCT-116 colon = test system: HCT-116 colon
HCT-15 colon = test system: HCT-15 colon
HL-60(TB) leukemia = test system: HL-60(TB) leukemia
HOP-62 NSCLC = test system: HOP-62 NSCLC
M14 melanoma = test system: M14 melanoma
MDA-MB-435 = test system: MDA-MB-435
NCI-H226 lung = test system: NCI-H226 lung
NCI-H23 lung = test system: NCI-H23 lung
NCI-H522 lung = test system: NCI-H522 lung
OVCAR-3 ovarian = test system: OVCAR-3 ovarian
OVCAR-5 ovarian = test system: OVCAR-5 ovarian
PC-3 prostate = test system: PC-3 prostate
SF-539 CNS = test system: SF-539 CNS
SK-MEL-2 melanoma = test system: SK-MEL-2 melanoma
SK-MEL-28 melanoma = test system: SK-MEL-28 melanoma
SK-OV-3 ovarian = test system: SK-OV-3 ovarian
SN12C renal = test system: SN12C renal
SR leukemia = test system: SR leukemia
SW-620 colon = test system: SW-620 colon
T-47D breast = test system: T-47D breast
A498 renal = test system: A498 renal
ACHN renal = test system: ACHN renal
HT29 colon = test system: HT29 colon
IGROV1 ovarian = test system: IGROV1 ovarian
KM12 colon = test system: KM12 colon
LOX IMVI melanoma = test system: LOX IMVI melanoma
MALME-3M melanoma = test system: MALME-3M melanoma
MCF7 breast = test system: MCF7 breast
OVCAR-4 ovarian = test system: OVCAR-4 ovarian
OVCAR-8 ovarian = test system: OVCAR-8 ovarian
SF-268 CNS = test system: SF-268 CNS
SF-295 CNS = test system: SF-295 CNS
SNB-19 CNS = test system: SNB-19 CNS
TK-10 renal = test system: TK-10 renal
U251 CNS = test system: U251 CNS

SMILES: N#Cc1ccccc1CSc1ncnc2nc[nH]c12
- GI50 (BT-549 breast): 56.6 µM
- GI50 (EKVX NSCLC): 90.1 µM
- GI50 (HOP-92 NSCLC): 28.6 µM
- GI50 (HS 578T breast): 51.9 µM
- GI50 (K-562 leukemia): 67.2 µM
- GI50 (MDA-MB-231 breast): 51 µM
- GI50 (MDA-N): 83.3 µM
- GI50 (MOLT-4 leukemia): 80.3 µM
- GI50 (NCI-H460 lung): 83.3 µM
- GI50 (NCI/ADR-RES ovarian): 60.4 µM
- GI50 (RPMI-8226 leukemia): 53.1 µM
- GI50 (RXF 393 renal): 94.9 µM
- GI50 (SK-MEL-5 melanoma): 74.3 µM
- GI50 (SNB-75 CNS): 9.8 µM
- TGI (SNB-75 CNS): 67.1 µM
- GI50 (UACC-257 melanoma): 44.5 µM
- GI50 (UACC-62 melanoma): 77.2 µM
- GI50 (UO-31 renal): 47.4 µM

SMILES: COc1cccc2c1C(=O)c1c(O)c3c(c(O)c1C2=O)CC(O)(C(=O)CO)CC3OC1CC(N2CCOCC2C#N)C(O)C(C)O1 (stereo unspecified)
- TGI (786-0 renal): 5.22 µM
- TGI (A549 NSCLC): > 100 µM
- TGI (BT-549 breast): 0.00113 µM
- TGI (CAKI-1 renal): 0.00425 µM
- TGI (CCRF-CEM leukemia): < 0.0001 µM
- TGI (COLO 205 colon): < 0.0001 µM
- TGI (DU-145 prostate): > 100 µM
- TGI (EKVX NSCLC): < 0.0001 µM
- TGI (HCC-2998 colon): < 0.0001 µM
- TGI (HCT-116 colon): 12.2 µM
- TGI (HCT-15 colon): 1.56 µM
- TGI (HL-60(TB) leukemia): < 0.0001 µM
- TGI (HOP-62 NSCLC): < 0.0001 µM
- TGI (M14 melanoma): < 0.0001 µM
- TGI (MDA-MB-231 breast): < 0.0001 µM
- TGI (MDA-MB-435): < 0.0001 µM
- TGI (MDA-N): < 0.0001 µM
- TGI (MOLT-4 leukemia): < 0.0001 µM
- TGI (NCI-H226 lung): < 0.0001 µM
- TGI (NCI-H23 lung): 0.128 µM
- TGI (NCI-H522 lung): < 0.0001 µM
- TGI (NCI/ADR-RES ovarian): 0.00357 µM
- TGI (OVCAR-3 ovarian): 3.28 µM
- TGI (OVCAR-5 ovarian): 19.1 µM
- TGI (PC-3 prostate): < 0.0001 µM
- TGI (SF-539 CNS): < 0.0001 µM
- TGI (SK-MEL-2 melanoma): < 0.0001 µM
- TGI (SK-MEL-28 melanoma): < 0.0001 µM
- TGI (SK-OV-3 ovarian): 2.4 µM
- TGI (SN12C renal): 0.00109 µM
- TGI (SR leukemia): > 100 µM
- TGI (SW-620 colon): 0.0569 µM
- TGI (T-47D breast): < 0.0001 µM
- TGI (UACC-257 melanoma): < 0.0001 µM
- TGI (UACC-62 melanoma): < 0.0001 µM

SMILES: C/C(=N/NC(N)=S)c1ccc[nH]1
- TGI (786-0 renal): > 100 µM
- TGI (A498 renal): > 100 µM
- TGI (A549 NSCLC): > 100 µM
- TGI (ACHN renal): > 100 µM
- TGI (BT-549 breast): > 100 µM
- TGI (CAKI-1 renal): > 100 µM
- TGI (CCRF-CEM leukemia): > 100 µM
- TGI (COLO 205 colon): > 100 µM
- TGI (DU-145 prostate): > 100 µM
- TGI (EKVX NSCLC): > 100 µM
- TGI (HCC-2998 colon): > 100 µM
- TGI (HCT-116 colon): > 100 µM
- TGI (HCT-15 colon): > 100 µM
- TGI (HL-60(TB) leukemia): > 100 µM
- TGI (HOP-62 NSCLC): > 100 µM
- TGI (HOP-92 NSCLC): > 100 µM
- TGI (HS 578T breast): > 100 µM
- TGI (HT29 colon): > 100 µM
- TGI (IGROV1 ovarian): > 100 µM
- TGI (K-562 leukemia): > 100 µM
- TGI (KM12 colon): > 100 µM
- TGI (LOX IMVI melanoma): > 100 µM
- TGI (M14 melanoma): > 100 µM
- TGI (MALME-3M melanoma): > 100 µM
- TGI (MCF7 breast): > 100 µM
- TGI (MDA-MB-231 breast): > 100 µM
- TGI (MDA-MB-435): > 100 µM
- TGI (MDA-N): > 100 µM
- TGI (MOLT-4 leukemia): > 100 µM
- TGI (NCI-H226 lung): > 100 µM
- TGI (NCI-H23 lung): > 100 µM
- TGI (NCI-H460 lung): > 100 µM
- TGI (NCI-H522 lung): > 100 µM
- TGI (NCI/ADR-RES ovarian): > 100 µM
- TGI (OVCAR-3 ovarian): > 100 µM
- TGI (OVCAR-4 ovarian): > 100 µM
- TGI (OVCAR-5 ovarian): > 100 µM
- TGI (OVCAR-8 ovarian): > 100 µM
- TGI (PC-3 prostate): > 100 µM
- TGI (RPMI-8226 leukemia): > 100 µM
- TGI (RXF 393 renal): > 100 µM
- TGI (SF-268 CNS): > 100 µM
- TGI (SF-295 CNS): > 100 µM
- TGI (SF-539 CNS): > 100 µM
- TGI (SK-MEL-2 melanoma): > 100 µM
- TGI (SK-MEL-28 melanoma): > 100 µM
- TGI (SK-MEL-5 melanoma): > 100 µM
- TGI (SK-OV-3 ovarian): > 100 µM
- TGI (SN12C renal): > 100 µM
- TGI (SNB-19 CNS): > 100 µM
- TGI (SNB-75 CNS): > 100 µM
- TGI (SW-620 colon): > 100 µM
- TGI (T-47D breast): > 100 µM
- TGI (TK-10 renal): > 100 µM
- TGI (U251 CNS): > 100 µM
- TGI (UACC-257 melanoma): > 100 µM
- TGI (UACC-62 melanoma): > 100 µM
- TGI (UO-31 renal): > 100 µM
